We go through four molecules from patent US9661856B1, “Synergy of plant antimicrobials with silver” (The Arizona Board of Regents on behalf of the University of …, priority 2012, dated 2017).

The structures appear in SMILES notation. Bounds are passed on as bounds.

The test system of data set [1] is Escherichia coli strain 25922. Kind of data set: Reduction of Escherichia coli in PBS after exposure to plant antimicrobials with and without silver (spread plate count). In kind it is cell-based. The note with it: for effect of combination with silver ions on antimicrobial activity against E. coli: plant antimicrobial combined with silver ions in solution; for reduction with silver alone treatment (in words): 100 ppb silver alone, within 30 min of exposure. As to the method:
Escherichia coli strain 25922 was obtained from the American Type Culture Collection (ATCC; Manassas, Va., USA) and was maintained on Tryptic Soy Agar (TSA; Difco, Sparks, Md., USA) with incubation for 18 to 24 h at 37° C. Prior to the start of each experiment, an Erlenmeyer flask containing 100 ml of Tryptic Soy Broth (TSB; Difco, Sparks, Md., USA) was inoculated with the organism and incubated on an orbital shaker (Model […]; New Brunswick Scientific, Edison, N.J., USA) at 300 rpm at 37° C. overnight. […] Beckman Coulter, Inc., Fullerton, Calif., USA). The pelleted cells were washed by re-suspension in 100 ml of physiological saline (0.85% NaCl) followed by centrifugation as described previously. This step was repeated one additional time. The final pellet was resuspended in 10 ml of sterile phosphate buffered saline (PBS; pH 7.4; Sigma-Aldrich, St. Louis, Mo., USA). […] A stock solution of silver (Ag) ions was prepared immediately prior to the start of each experiment by adding AgNO3 (J.T. Baker, Phillipsburg, N.Y., USA) to distilled water to obtain an Ag ion concentration of 100 mg/l (100 ppm). The Ag concentration was measured at the beginning of each experiment by a colorimetric procedure using a Hach DR/2000 spectrophotometer (Anonymous 1989). […] (Berkley, Calif., USA). […] Louis, Mo., USA). The plant antimicrobials were dissolved and diluted (volume to volume) to specific test concentrations using PBS. […] A control with E. coli in PBS but no added antimicrobials was also included. Purified stocks of the bacteria were added separately to the antimicrobial solutions (final concentration of […]) and the flasks were placed on an orbital shaker (300 rpm) for the duration of the experiment. Experiments were performed in triplicate at room temperature (24° C.) in 50 ml polypropylene conical tubes (Becton, Dickinson and Company, Franklin Lakes, N.J., USA). At predetermined time intervals, 100 μl samples were collected and neutralized with Dey Engley (D/E) neutralizing broth (Difco, Sparks, Md., USA) at a ratio of 1:10. The D/E is neutralizes the antimicrobial effect of silver whereas the plant antimicrobials are neutralized via dilution. Samples were assayed for bacterial enumeration immediately. Bacterial samples were ten-fold serially diluted in physiological saline as needed and the surviving bacteria were enumerated using the spread plate method on duplicate plates of Levine Eosin Methylene Blue Agar (EMB; Becton, Dickinson and Company, Franklin Lakes, N.J., USA). The plates were incubated at 37° C. for 24 hours and the surviving bacterial colonies were counted. Data were reported as logarithmic reduction using the formula […], where N0 was the concentration of E. coli at time zero and Nt was the surviving concentration at time t. A Student's t-test was used to determine if there were significant differences between the control and the antimicrobial treatments (the reductions were compared to the control after 30 min) or between the various treatments (for each exposure time).

For data set [2] the following is noted: humans; based on epidemiological and pharmacokinetic data (WHO); cited from earlier work.

Turning to `Cc1ccc(C(C)C)cc1O` [Carvacrol, carvacrol], the “effect of combination with silver ions on antimicrobial activity against E. coli” value (from here on “effect of combination with silver ions”) in data set [1] was “enhanced or synergistic”.
As for `O=C/C=C/c1ccccc1` [Cinnamaldehyde], the “exposure time within which the reduction was statistically significant (P≦0.05) compared to the control” value in data set [1] (0.05% citral, 0.02% carvacrol or 0.1% cinnamaldehyde, alone or with 100 ppb Ag, PBS) was no more than 20 min. Also, the “Reduction (Log10 ± standard deviation) in the population of Escherichia coli” value (shortened to “Reduction (Log10 ± standard deviation)”) turned out to be 0.05 ± 0.04 Log10 in data set [1] (Table 3, 1 min, 0.1% cinnamaldehyde (vol/vol), silver 100 ppb, PBS, inoculum 2.1 × 10^7 CFU/ml); 0.18 ± 0.04 Log10 in data set [1] (Table 3, 5 min, 0.1% cinnamaldehyde (vol/vol), silver 100 ppb, PBS, inoculum 2.1 × 10^7 CFU/ml); 0.17 ± 0.07 Log10 in data set [1] (Table 3, 10 min, 0.1% cinnamaldehyde (vol/vol), silver 100 ppb, PBS, inoculum 2.1 × 10^7 CFU/ml); 0.05 ± 0.04 Log10 in data set [1] (Table 6, cinnamaldehyde 0.1% (vol/vol) in PBS, 1 min, inoculum 2.1 × 10^7 CFU/ml). In data set [1], the “effect of combination with silver ions” value is “enhanced or synergistic”.
Take `CC(C)=CCCC(C)=CC=O` [Citral]: the “Reduction (Log10 ± standard deviation)” value in data set [1] (Table 1, 1 min, 0.05% citral (vol/vol), silver 100 ppb, PBS, inoculum 1.7 × 10^7 CFU/ml) turned out to be 0.06 ± 0.03 Log10. The “effect of combination with silver ions” value in data set [1] was “enhanced or synergistic”.
As for `[Ag+]` [Silver], in data set [2], the “No Observable Adverse Effect Level (NOAEL), lifetime limit of silver” value is 10 g. Also, the entries for the “reduction with silver alone treatment (in words)” value in data set [1] and in data set [1] (listed as Ag) were “no reductions were observed” and “No significant reductions”, respectively. Besides, the “Reduction (Log10 ± standard deviation)” value worked out at 0.01 ± 0.04 Log10 in data set [1] (Table 1, 30 min, 0.05% citral (vol/vol), silver 100 ppb, PBS, inoculum 1.7 × 10^7 CFU/ml); 0.08 ± 0.12 Log10 in data set [1] (Table 2, 5 min, 0.02% carvacrol (vol/vol), silver 100 ppb, PBS, inoculum 2.9 × 10^7 CFU/ml); 0.00 ± 0.06 Log10 in data set [1] (Table 2, 10 min, 0.02% carvacrol (vol/vol), silver 100 ppb, PBS, inoculum 2.9 × 10^7 CFU/ml); 0.00 ± 0.04 Log10 in data set [1] (Table 2, 30 min, 0.02% carvacrol (vol/vol), silver 100 ppb, PBS, inoculum 2.9 × 10^7 CFU/ml); 0.12 ± 0.10 Log10 in data set [1] (Table 3, 30 min, 0.1% cinnamaldehyde (vol/vol), silver 100 ppb, PBS, inoculum 2.1 × 10^7 CFU/ml); 0.00 ± 0.03 Log10 in data set [1] (Table 4, 1 min, 0.5% allspice oil (vol/vol), silver 100 ppb, PBS, inoculum 6.6 × 10^6 CFU/ml). The “Reduction (Log10 ± standard deviation)” value is recorded as 0.00 ± 0.08 Log10 in data set [1] (Table 4, 5 min, 0.5% allspice oil (vol/vol), silver 100 ppb, PBS, inoculum 6.6 × 10^6 CFU/ml); 0.00 ± 0.12 Log10 in data set [1] (Table 4, 10 min, 0.5% allspice oil (vol/vol), silver 100 ppb, PBS, inoculum 6.6 × 10^6 CFU/ml); 0.00 ± 0.23 Log10 in data set [1] (Table 4, 20 min, 0.5% allspice oil (vol/vol), silver 100 ppb, PBS, inoculum 6.6 × 10^6 CFU/ml); 0.29 ± 0.32 Log10 in data set [1] (Table 4, 30 min, 0.5% allspice oil (vol/vol), silver 100 ppb, PBS, inoculum 6.6 × 10^6 CFU/ml).
